In patent publication US8158828B2, “Nuclear receptor binding agents” (priority 2005, dated 2012):
Where two headings read alike, the source gives them in different places.

What was measured:
[1] = target: T1, ER-α (Rattus norvegicus, UniProt P06211); assay: ER-α transactivation, ERE-LUC in COS or 293 cells; type: cell-based; set-up: % estardiol activity, ER-α: dose or concentration left out as unconfirmed; details: for EC50: ER alpha agonists; for IC50: ER alpha antagonists
T1 sequence (P06211 1-600): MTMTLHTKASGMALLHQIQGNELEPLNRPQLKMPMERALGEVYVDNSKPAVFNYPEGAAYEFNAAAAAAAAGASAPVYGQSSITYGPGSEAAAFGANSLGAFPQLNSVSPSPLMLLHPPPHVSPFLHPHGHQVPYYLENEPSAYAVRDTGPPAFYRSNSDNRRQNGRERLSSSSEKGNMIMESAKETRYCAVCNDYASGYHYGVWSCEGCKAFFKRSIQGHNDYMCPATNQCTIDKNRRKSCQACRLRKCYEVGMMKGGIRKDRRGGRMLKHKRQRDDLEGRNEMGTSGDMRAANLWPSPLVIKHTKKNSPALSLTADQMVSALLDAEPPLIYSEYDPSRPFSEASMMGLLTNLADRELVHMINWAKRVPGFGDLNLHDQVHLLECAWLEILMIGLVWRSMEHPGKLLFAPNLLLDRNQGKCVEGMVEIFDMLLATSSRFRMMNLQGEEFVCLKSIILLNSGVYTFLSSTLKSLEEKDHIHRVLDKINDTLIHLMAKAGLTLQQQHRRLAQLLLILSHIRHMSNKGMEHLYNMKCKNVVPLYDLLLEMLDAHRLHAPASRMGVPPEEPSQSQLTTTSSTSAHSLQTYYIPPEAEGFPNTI
Procedure: FIG. 1: Effects of the indicated compounds on ER-α transactivation. COS or 293 cells plated in DME without phenol red+10% charcoal stripped fetal bovine serum (csFBS) at 90,000 cells per well of 24 well plates were transfected with 0.25 μg ERE-LUC, 0.02 μg CMV-LUC (Renilla) and 25 ng of ER-α by lipofectamine. Twenty four hours after transfection, the cells were treated as indicated in the figure, harvested 48 hrs after transfection and were assayed for firefly and renilla luciferase.
(§1) FIG. 5: Effect of the indicated compounds on ER-α transactivation. COS or 293 cells plated in DME without phenol red+10% csFBS at 90,000 cells per well of a 24 well plate were transfected with 0.25 μg ERE-LUC, 0.02 μg CMV-LUC (Renilla) and 5 ng of ER-α by lipofectamine. Twenty four hours after transfection, the cells were treated as indicated in the figure, harvested 48 hrs after transfection and were assayed for firefly and renilla luciferase.
as §1, with “FIG. 9:” for “FIG. 5:”, “csFBS” for “csFBS at 90,000 cells”, “and 25” for “and 5”
Also 25 ng of ER-α (FIGS. 1, 5, and 9), 50 ng of ER-β (FIGS. 2, 6 and 10) or 12.5 ng of AR (FIG. 3) were introduced by lipofectamine. All the receptors were cloned from rat tissue into the PCR3.1 vector backbone. […] Cells were harvested 48 hrs after transfection, and assayed for firefly and Renilla luciferase activity.
Also 25 ng of ER-α), 50 ng of ER-β or 12.5 ng of AR were introduced by lipofectamine. All the receptors were cloned from rat tissue into the PCR3.1 vector backbone. […] Cells were harvested 48 hrs after transfection, and assayed for firefly and Renilla luciferase activity.

[2] = target: T2, ER-β (Rattus norvegicus, UniProt Q62986); assay: ER-β transactivation, ERE-LUC in COS or 293 cells; type: cell-based; set-up: % estardiol activity, ER-β: dose or concentration left out as unconfirmed; details: for ER-β LUC expression, compound alone: COS or 293 cells
T2 construct: expressed in transfected cells; host or cells: COS or 293 cells
T2 sequence (Q62986 whole entry): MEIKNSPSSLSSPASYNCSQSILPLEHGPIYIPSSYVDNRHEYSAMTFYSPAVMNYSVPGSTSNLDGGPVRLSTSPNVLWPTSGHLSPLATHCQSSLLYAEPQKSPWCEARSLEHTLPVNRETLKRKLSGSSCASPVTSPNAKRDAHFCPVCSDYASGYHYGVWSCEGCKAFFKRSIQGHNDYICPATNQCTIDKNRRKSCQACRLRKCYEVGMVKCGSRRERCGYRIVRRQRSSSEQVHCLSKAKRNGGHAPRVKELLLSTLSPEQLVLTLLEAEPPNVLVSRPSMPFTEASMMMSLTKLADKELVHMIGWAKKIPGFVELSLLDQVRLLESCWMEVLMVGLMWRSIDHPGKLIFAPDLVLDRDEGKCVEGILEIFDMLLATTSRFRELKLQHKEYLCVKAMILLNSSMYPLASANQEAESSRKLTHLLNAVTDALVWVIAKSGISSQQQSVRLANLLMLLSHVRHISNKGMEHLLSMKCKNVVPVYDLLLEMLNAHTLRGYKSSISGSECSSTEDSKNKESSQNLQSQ
Procedure: as §1, with “FIG. 2:” for “FIG. 5:”, “on ER-β” for “on ER-α”, “and 50” for “and 5”, “of ER-β” for “of ER-α”
as §1, with “FIG. 6:” for “FIG. 5:”, “on ER-β” for “on ER-α”, “and 50” for “and 5”, “of ER-β” for “of ER-α”, “and” for “and were”
as §1, with “FIG. 10:” for “FIG. 5:”, “on ER-β” for “on ER-α”, “in DME+10%” for “in DME without phenol red+10%”, “and 50” for “and 5”, “of ER-β” for “of ER-α”
(§2) All the receptors were cloned from rat tissue into the PCR3.1 vector backbone. […] Cells were harvested 48 hrs after transfection, and assayed for firefly and Renilla luciferase activity.
as §2

[3] = Metabolic stability in human liver microsomes; details: 1 μM substrate, 0.5 mg/mL microsomes
Procedure: Each substrate or reference control was dissolved at a concentration of 10 mM in DMSO, from which a 5 μM spiking solution was prepared by dilution in water. Substrates (1 μM) were incubated in the presence of human liver microsomes (Xenotech LLC, Kansas City Mo.) at 0.5 mg/mL fortified with an NADPH regenerating system at 37° C. and pH 7.4. The NADPH regenerating system consisted of glucose-6-phosphate dehydrogenase (1 units/mL) in 0.05M K2HPO4. Duplicate incubations were performed in 96-well polypropylene cluster tubes in a final volume of 250 μL per reaction. At 0, 2, 4, 6, 10, 30, and 60 minutes a stop solution (300 μL acetonitrile) was added to aliquots of the reaction mixture. Precipitated protein was removed by centrifugation (3000 rpm for 15 minutes) and the supernatants were transferred to clean 96-well plates for analysis.
The samples were injected onto a Phenomenex Luna hexylphenyl 50×2 mm i.d. 5 uM, column fitted with a guard column. An isocratic mobile phase consisting of 50% acetonitrile and 0.1% formic acid in water was used at a flow rate of 0.3 mL/min. The protonated molecular ion (M+H)^+ of the analyte was monitored by MDS/Sciex API 4000QTrap triple quadrupole mass spectrometer using electrospray positive mode ionization with a temperature of 500° C. and a spray voltage of 4000V. Total analysis time was 1.5 min per sample.
Metabolic stability was defined as the amount of substrate metabolized by the incubation with hepatic microsomes and expressed as a percentage of the initial amount of substrate (% remaining) based on peak area. Initial substrate concentration for each analyte was 1 μM. The initial peak area of each substrate was determined at time zero and metabolic stability was assessed based on the change in analyte peak area from time 0 min to a single fixed timepoint for each sample (2-60 min, representative timepoints are shown in Table 2 below).

[4] = ER beta agonists, read-out: EC50 (ER-β)

In the case of `CCCc1ccc(C(=O)N(c2ccc(O)cc2)c2ccc(OCCN3CCCCC3)cc2)cc1` [Compound 10o, N-(4-hydroxyphenyl)-N-(4-(2-(piperidin-1-yl)ethoxy)phenyl)-4-propylbenzamide], the “% estardiol activity, ER-α” value [1] is reported as 12% and the “inhibition of estradiol (E2) induced ER-α activity (luciferase expression)” value ([1]; COS or 293 cells, with estrogen) is reported as “inhibited estrogen stimulated luciferase expression”.

In the case of `Cl.O=C(c1cccc(OCCN2CCCCC2)c1)N(c1ccccc1)c1ccccc1` [Compound 4d, N,N-diphenyl-[3-(2-piperidinylethoxy)]-benzamide hydrochloride], the “% estardiol activity, ER-α” value [1] is reported as 16.8% and the “% estardiol activity, ER-β” value [2] is reported as 30.7%.

With `O=C(c1ccc(F)cc1)N(c1ccc(O)cc1)c1ccc(O)cc1` [Compound 3k, N,N-bis(4-hydroxyphenyl)-4-fluoro-benzamide] the EC50 [1] was 12 nM, the “% Remaining 0 min” value ([3]; 0 min) was 100% and the “% Remaining 10 min” value ([3]; 10 min) was 119%. The “% Remaining 30 min” value ([3]; 30 min) was 120% and the “% Remaining 60 min” value ([3]; 60 min) was 94%.

Compound `O=C(c1ccc(O)cc1)N(c1ccc(O)cc1)c1ccc(-c2ccccc2)cc1` [Compound 3v, N-biphenyl-4-yl-4-hydroxy-N-(4-hydroxyphenyl)-benzamide] has an EC50 [1] of 22.4 nM.

For `O=C(c1cccc2ccccc12)N(c1ccc(O)cc1)c1ccc(OCCN2CCCCC2)cc1` [Compound 11f, N-(4-hydroxyphenyl)-N-(4-(2-(piperidin-1-yl)ethoxy)phenyl)-1-naphthamide], the IC50 [1] was 69 nM.

In the case of `O=C(c1ccc(O)c(O)c1)N(c1ccc(O)cc1)c1ccc(O)cc1` [Compound 10m, 3,4-dihydroxy-N,N-bis(4-hydroxyphenyl)-benzamide], the IC50 [1] is reported as < 10 nM.

`Cc1cccc(C(=O)N(c2ccc(O)cc2)c2ccc(O)cc2)c1C` [Compound 10j, N,N-bis(4-hydroxyphenyl)-2,3-dimethylbenzamide] showed an IC50 [2] of 20 nM.

With `Cc1cc(C(=O)N(c2ccc(O)cc2)c2ccc(O)cc2)ccc1O` [Compound 10n, 4-hydroxy-N,N-bis(4-hydroxyphenyl)-3-methylbenzamide] the IC50 ([2]; ER beta antagonist, read-out: IC50 (ER-β)) was 47 nM.

In the case of `CCCc1ccc(C(=O)N(c2ccc(O)cc2)c2ccc(O)cc2)cc1` [Compound 10l, N,N-bis(4-hydroxyphenyl)-4-propylbenzamide], the “% estardiol activity, ER-α” value [1] is reported as 32% and the EC50 [2] is reported as 27 nM.

For `O=C(c1ccc(O)cc1)N(c1ccccc1)c1cccc(O)c1` [Compound 3j, 4-hydroxy-N-(3-hydroxyphenyl)-N-phenyl-benzamide], the “% estardiol activity, ER-α” value [1] was 62%.

With `Cc1cccc(CN(c2ccc(O)cc2)c2ccc(O)cc2)c1C` [Compound 10t, 4,4′-(2,3-dimethyl-benzylazanediyl)diphenol] the IC50 [2] was 17 nM.

For `O=C(c1cccc(O)c1)N(c1ccc(O)cc1)c1ccc(O)cc1` [Compound 3b, 3-hydroxy-N-bis-(4-hydroxyphenyl)-benzamide], the EC50 [1] was 10 nM.

In the case of `O=C(c1ccc(O)cc1)N(c1ccccc1)c1ccc(O)cc1` [Compound 3i, 4-hydroxy-N-(4-hydroxyphenyl)-N-phenyl-benzamide], the “% estardiol activity, ER-α” value [1] is reported as 77.8%, the “ER-α activity (luciferase expression), compound alone” value ([1]; COS or 293 cells) is reported as “most potent in stimulating ER-α” and the “ER-β LUC expression, compound alone” value [2] is reported as “most potent in stimulating ER-β”.

`O=C(c1cccc(F)c1)N(c1ccc(O)cc1)c1ccc(OCCN2CCCCC2)cc1` [Compound 11g, 3-fluoro-N-(4-hydroxyphenyl)-N-(4-(2-(piperidin-1-yl)ethoxy)phenyl)benzamide] showed an IC50 [1] of 16 nM.

In the case of `O=C(c1ccccc1)N(c1ccccc1)c1ccc(O)cc1` [Compound 3g, N-(4-hydroxyphenyl)-N-phenyl-benzamide], the “% estardiol activity, ER-α” value [1] is reported as 62.5% and the “ER-β LUC expression, compound alone” value [2] is reported as “most potent in stimulating ER-β”.

In the case of `O=C(c1ccc(O)c(F)c1)N(c1ccccc1)c1ccc(O)cc1` [Compound 10f, 3-fluoro-4-hydroxy-N-(4-hydroxyphenyl)-N-phenylbenzamide], the “% estardiol activity, ER-α” value [1] is reported as 85% and the EC50 [2] is reported as 42 nM.

For `Oc1ccc(CN(c2ccc(O)cc2)c2ccc(F)cc2)cc1` [Compound 10x, 4-((4-fluorophenyl)(4-hydroxybenzyl)amino)phenol], the EC50 [1] was 16 nM.

With `O=C(c1ccc(O)cc1)N(c1ccc(O)cc1)C1CCCCC1` [Compound 10w, N-cyclohexyl-4-hydroxy-N-(4-hydroxyphenyl)benzamide] the “% estardiol activity, ER-α” value [1] was 21.9%.

For `Cc1ccc(C(=O)N(c2ccc(O)cc2)c2ccc(O)cc2)cc1C` [Compound 10d, N,N-bis(4-hydroxyphenyl)-3,4-dimethylbenzamide], the “% estardiol activity, ER-α” value [1] was 21.4% and the EC50 [2, 4] was 85 nM.

With `CCCCCc1ccc(C(=O)N(c2ccc(O)cc2)c2ccc(O)cc2)cc1` [Compound 11p, N,N-bis(4-hydroxyphenyl)-4-pentylbenzamide] the EC50 [2, 4] was < 10 nM.
